Reference: the supplement of paper PMC10307832

These cell lines were tested with CC(C)CCN1c2nc(Nc3cc(F)c(O)c(F)c3)ncc2N(C)C(=O)C1C [BI-D1870] + O=C(CCCCCCC(=O)Nc1ccccc1)NO [Vorinostat] (partner 1 µM) (assay: relative viability (nuclei count vs DMSO), 5 days (fraction); higher = more cells survive). Conditions: first compound 0.4 µM.
Procedure, shortened: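 Relative viability was taken as the ratio of nuclei in treated wells to nuclei in vehicle wells. Lung cancer cell lines in 1536-well plates received compounds by pin tool one day after seeding, either one drug alone or a fixed anchor-drug dose plus five library-drug doses (not always all listed) in √10 steps. Nuclei were counted on 4× images after 5 days of treatment, and values are medians of duplicate plates.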

First: NCI-H460
Second: NCI-H2347
The relative viability of the first is higher: 0.672 for the first, 0.597 for the second.

Going from SK-LU-1 to NCI-H1395, the relative viability rises from 0.71 to 0.801.

First: 201T
Second: NCI-H1915
The relative viability of the first is higher: 0.922 for the first, 0.513 for the second.

First: HCC-827
Second: LXF-289
The relative viability of the first is higher: 0.818 for the first, 0.695 for the second.

Going from NCI-H23 to NCI-H647, the relative viability rises from 0.489 to 0.669.

Compared with CAL-12T, NCI-H1651 is lower in relative viability: 0.716 for the first, 0.472 for the second.

Compared with EPLC-272H, NCI-H2228 is higher in relative viability: 0.484 for the first, 0.824 for the second.

Compared with NCI-H1355, NCI-H3122 is higher in relative viability: 0.657 for the first, 0.858 for the second.

Compared with NCI-H1437, NCI-H1755 is lower in relative viability: 0.749 for the first, 0.705 for the second.

Same assay, conditions: first compound 1.265 µM

Compared with NCI-H2405, HOP-62 is lower in relative viability: 0.974 for the first, 0.703 for the second.

Going from NCI-H522 to LU99A, the relative viability falls from 0.907 to 0.428.

Going from BEN to HARA, the relative viability falls from 0.628 to 0.614.

Compared with SW 900, NCI-H322M is higher in relative viability: 0.725 for the first, 0.781 for the second.

Compared with LCLC-97TM1, NCI-H2009 is lower in relative viability: 0.868 for the first, 0.599 for the second.

First: A-427
Second: NCI-H441
The relative viability of the first is higher: 0.807 for the first, 0.722 for the second.

First: NCI-H661
Second: NCI-H1734
The relative viability of the first is lower: 0.691 for the first, 0.779 for the second.

First: NCI-H460
Second: NCI-H2347
The relative viability of the first is lower: 0.37 for the first, 0.776 for the second.

Going from SK-LU-1 to NCI-H1395, the relative viability rises from 0.625 to 0.705.

First: 201T
Second: NCI-H1915
The relative viability of the first is higher: 0.914 for the first, 0.489 for the second.

Going from HCC-827 to LXF-289, the relative viability falls from 0.988 to 0.695.

Going from NCI-H23 to NCI-H647, the relative viability rises from 0.448 to 0.536.

Going from CAL-12T to NCI-H1651, the relative viability falls from 0.666 to 0.623.

Compared with EPLC-272H, NCI-H2228 is higher in relative viability: 0.297 for the first, 0.959 for the second.

Going from NCI-H1355 to NCI-H3122, the relative viability rises from 0.731 to 1.21.

First: NCI-H1437
Second: NCI-H1755
The relative viability of the first is lower: 0.76 for the first, 0.849 for the second.

Same assay, conditions: first compound 4 µM

Going from NCI-H2405 to HOP-62, the relative viability falls from 0.9 to 0.464.

First: NCI-H522
Second: LU99A
The relative viability of the first is higher: 0.94 for the first, 0.345 for the second.

Compared with BEN, HARA is lower in relative viability: 0.534 for the first, 0.495 for the second.

Compared with SW 900, NCI-H322M is higher in relative viability: 0.466 for the first, 0.769 for the second.

First: LCLC-97TM1
Second: NCI-H2009
The relative viability of the first is higher: 0.472 for the first, 0.461 for the second.

Compared with A-427, NCI-H441 is higher in relative viability: 0.501 for the first, 0.655 for the second.

First: NCI-H661
Second: NCI-H1734
The relative viability of the first is lower: 0.451 for the first, 0.617 for the second.

First: NCI-H460
Second: NCI-H2347
The relative viability of the first is lower: 0.0691 for the first, 0.545 for the second.

Compared with SK-LU-1, NCI-H1395 is higher in relative viability: 0.35 for the first, 0.597 for the second.

Compared with 201T, NCI-H1915 is lower in relative viability: 0.932 for the first, 0.436 for the second.

First: HCC-827
Second: LXF-289
The relative viability of the first is higher: 0.765 for the first, 0.527 for the second.

Compared with NCI-H23, NCI-H647 is higher in relative viability: 0.202 for the first, 0.335 for the second.

First: CAL-12T
Second: NCI-H1651
The relative viability of the first is lower: 0.352 for the first, 0.451 for the second.

Going from EPLC-272H to NCI-H2228, the relative viability rises from 0.148 to 0.32.

First: NCI-H1355
Second: NCI-H3122
The relative viability of the first is lower: 0.608 for the first, 0.998 for the second.
